test system: BSP; experiment: Immunostaining of transplanted tissues for BSP; type: in vivo, immunocompromised mice; settings: 6 weeks after transplantation, FIG. 4
Excerpt: (§1) Briefly, the removed tissues were fixed in 4% paraformaldehyde, decalcified in 10% EDTA (pH 7.4), embedded in paraffin, and then immunostained with anti-DSP and anti-BSP antibodies at a dilution of 1:150 as primary antibodies, and reacted with biotin-labeled goat anti-rabbit IgG (Vector Labs) as secondary antibodies to determine DSP and BSP levels (FIG. 4). In this regard, the tissue transplanted with an implant including none of the peptides of the present invention was used as a control group.
(§2) In this regard, a tissue transplanted with an implant including none of the peptides of the present invention was used as a control group.

Substance	BSP expression level
KYKQKKRNYK (Synthetic construct of novel peptide) [SEQ ID NO: 87]	low BSP expression level

same assay, conditions: 12 weeks after transplantation, FIG. 7

Substance	BSP expression level
KYKQKKRNYK (Synthetic construct of novel peptide) [SEQ ID NO: 87]	low BSP expression level

test system: DSP; experiment: Immunostaining of transplanted tissues for DSP; type: in vivo, immunocompromised mice; settings: 6 weeks after transplantation, FIG. 4
Excerpt: as §1, §2

Substance	DSP expression level
KYKQKKRNYK (Synthetic construct of novel peptide) [SEQ ID NO: 87]	relatively high DSP expression level

same assay, conditions: 12 weeks after transplantation, FIG. 7

Substance	DSP expression level
KYKQKKRNYK (Synthetic construct of novel peptide) [SEQ ID NO: 87]	relatively very high DSP expression levels

test system: physiologic dentin (tertiary dentin); experiment: Direct pulp capping canine model, physiologic (tertiary) dentin formation; type: in vivo, dogs; settings: exposed pulp, peptide 1.5 μg, sealed with MTA, covered with GI cement, 3 weeks, FIG. 12
Description: In detail, to establish dentin-damaged canine models by direct pulp capping, the enamel and dentin in the cervical part were removed from the premolars of 12-month-old adult dogs by using a dental bur so that the dental pulp was exposed to the outside. The models were treated with the control group, the peptide of Group 11, or the peptide of Group 12. 3 weeks later, the adult dogs were euthanized and teeth were extracted therefrom.
(§3) The extracted teeth were fixed in 4% paraformaldehyde for 24 hours, washed with PBS (pH 7.4) several times, and then decalcified with 10% formic acid. The decalcified teeth were embedded in paraffin to prepare tissue sections. The tissue sections were stained with hematoxylin/eosin (H&E), and dentin regeneration capabilities were evaluated by histological analysis.

Substance	dentin regeneration (histological analysis, H&E)
KYKQKKRNYK (Synthetic construct of novel peptide) [SEQ ID NO: 87]	new physiologic dentin (TD) which was continuous with the odontoblast processes of the original dentin was formed

test system: physiologic dentin (tertiary dentin); experiment: Indirect pulp capping canine model, physiologic (tertiary) dentin formation; type: in vivo, dogs; settings: deep cavity model, 1.5 μg, together with GI cement, 3 weeks, FIG. 11
Excerpt: In detail, to establish dentin-damaged canine models by indirect pulp capping, a part of enamel in the cervical part was removed from the premolars of 12-month-old adult dogs by using a dental bur. The dentin was shallowly removed according to the exposure degree of the dentin to form a shallow cavity, thereby establishing a shallow cavity model. The dentin was deeply removed such that the dental pulp was seen through, but not exposed to the outside, thereby establishing a deep cavity model. The models were treated with the control group, the peptide of Group 11, or the peptide of Group 12. 3 weeks later, the adult dogs were euthanized, and teeth were extracted therefrom.
as §3, with “2.4” for “24”

Substance	dentin regeneration (histological analysis, H&E)
KYKQKKRNYK (Synthetic construct of novel peptide) [SEQ ID NO: 87]	regeneration of physiologic tertiary dentin (TD) which was continuous with the odontoblast processes of the original dentin structure was observed

same assay, conditions: shallow cavity model, 1.5 μg, 3 weeks, FIG. 10

Substance	dentin regeneration (histological analysis, H&E)
KYKQKKRNYK (Synthetic construct of novel peptide) [SEQ ID NO: 87]	regeneration of physiologic tertiary dentin (TD) which was continuous with the odontoblast processes of the original dentin structure was observed

test system: Dspp gene; experiment: mRNA level of Dspp gene in MDPC-23 cells by real-time PCR; type: cell-based, mouse; settings: 48 hours, ratio relative to Dspp mRNA level of control group, triplicate
Description: The MDPC-23 cells cultured in Example 2-1 were treated with the peptides of the respective groups which were synthesized in Example 1, and cultured for 48 hours. Then, mRNA levels of an odontoblast differentiation marker Dspp gene expressed in the MDPC-23 cells were measured, and a ratio of the measured Dspp mRNA level relative to a Dspp mRNA level measured in a control group was calculated, respectively (Tables 13 to 24). Further, mean values of the Dspp mRNA levels measured in the peptides of respective groups were compared between the groups (FIG. 1B). In this regard MDPC-23 cells which were treated with none of the peptides of the present invention were used as a control group.
The expression levels of the Dspp gene were measured by RT-PCR and real time PCR analysis: In detail, total RNA was extracted from the MDPC-23 cells with TRIzol reagent. 2 μg of the total RNA, 1 μl of reverse transcriptase, and 0.5 μg oligo (dT) were used to synthesize cDNA. The synthesized cDNA were used in real-time polymerase chain reaction. The real-time polymerase chain reaction was performed on an ABI PRISM 7500 sequence detection system (Applied Biosystems) using the following primers and a SYBR GREEN PCR Master Mix (Takara, Japan). The real-time polymerase chain reaction was performed under conditions of 94° C., 1 min; 95° C., 15 sec 60° C., 34 sec for 40 cycles. Results were analyzed by a comparative cycle threshold (CT) method. In this regard, Gapdh gene was used as an internal control. The experiments were performed in triplicate, and then mean values and standard deviations thereof were taken as measured values.

Substance	mRNA level of Dspp gene, Mean
94 (KYKQKRKSYK; Synthetic construct of novel peptide) [compound 94]	3.836
67 (KYKQRRKNKY; Synthetic construct of novel peptide) [compound 67]	1.777
11 (KYQRRRKSKY; Synthetic construct of novel peptide) [compound 11]	1.639
77 (KYKQKKKSKY; Synthetic construct of novel peptide) [compound 77]	1.729
38 (KYRQKRKNKY; Synthetic construct of novel peptide) [compound 38]	2.116
39 (KYRQKKRNKY; Synthetic construct of novel peptide) [compound 39]	1.712
57 (KYRQRKKSYK; Synthetic construct of novel peptide) [compound 57]	2.039
27 (KYQRRRKSYK; Synthetic construct of novel peptide) [compound 27]	1.993
6 (KYQRKRKNKY; Synthetic construct of novel peptide) [compound 6]	1.746
48 (KYRQKRRSKY; Synthetic construct of novel peptide) [compound 48]	1.558
28 (KYQRRRRSYK; Synthetic construct of novel peptide) [compound 28]	2.453
87 (KYKQKKRNYK; Synthetic construct of novel peptide) [compound 87]	3.888
20 (KYQRRRRNYK; Synthetic construct of novel peptide) [compound 20]	2.553
89 (KYKQRKKSYK; Synthetic construct of novel peptide) [compound 89]	4.211
93 (KYKQKKKSYK; Synthetic construct of novel peptide) [compound 93]	4.525
13 (KYQRKKKSKY; Synthetic construct of novel peptide) [compound 13]	1.685
17 (KYQRRKKNYK; Synthetic construct of novel peptide) [compound 17]	2.117
55 (KYRQKKRNYK; Synthetic construct of novel peptide) [compound 55]	1.663
18 (KYQRRKRNYK; Synthetic construct of novel peptide) [compound 18]	2.319
29 (KYQRKKKSYK; Synthetic construct of novel peptide) [compound 29]	1.883
9 (KYQRRKKSKY; Synthetic construct of novel peptide) [compound 9]	1.854
1 (KYQRRKKNKY; Synthetic construct of novel peptide) [compound 1]	1.754

Substance	mRNA level of Dspp gene, Mean
8 (KYQRKRRNKY; Synthetic construct of novel peptide) [compound 8]	1.639
64 (KYRQKRRSYK; Synthetic construct of novel peptide) [compound 64]	1.967
61 (KYRQKKKSYK; Synthetic construct of novel peptide) [compound 61]	2.301
56 (KYRQKRRNYK; Synthetic construct of novel peptide) [compound 56]	1.701
80 (KYKQKRRSKY; Synthetic construct of novel peptide) [compound 80]	1.837
74 (KYKQRKRSKY; Synthetic construct of novel peptide) [compound 74]	2.011
16 (KYQRKRRSKY; Synthetic construct of novel peptide) [compound 16]	1.739
34 (KYRQRKRNKY; Synthetic construct of novel peptide) [compound 34]	1.931
63 (KYRQKKRSYK; Synthetic construct of novel peptide) [compound 63]	1.769
73 (KYKQRKKSKY; Synthetic construct of novel peptide) [compound 73]	2.035
30 (KYQRKRKSYK; Synthetic construct of novel peptide) [compound 30]	2.512
69 (KYKQKKKNKY; Synthetic construct of novel peptide) [compound 69]	2.011
22 (KYQRKRKNYK; Synthetic construct of novel peptide) [compound 22]	2.412
45 (KYRQKKKSKY; Synthetic construct of novel peptide) [compound 45]	1.532
12 (KYQRRRRSKY; Synthetic construct of novel peptide) [compound 12]	1.548
37 (KYRQKKKNKY; Synthetic construct of novel peptide) [compound 37]	1.597
41 (KYRQRKKSKY; Synthetic construct of novel peptide) [compound 41]	1.546
60 (KYRQRRRSYK; Synthetic construct of novel peptide) [compound 60]	2.107
81 (KYKQRKKNYK; Synthetic construct of novel peptide) [compound 81]	3.092
14 (KYQRKRKSKY; Synthetic construct of novel peptide) [compound 14]	1.846
72 (KYKQKRRNKY; Synthetic construct of novel peptide) [compound 72]	2.011

From patent US10844092B2, “Peptide for promoting regeneration of dentin or dental pulp tissue” (HysensBio Co., Ltd., priority 2016, dated 2020)
